Earlier results on two molecules are cited in patent publication US9522876B2, “Cytotoxic and anti-mitotic compounds, and methods of using the same” (ZYMEWORKS INC., priority 2013, dated 2016).

The data set relates to cells. The following applies: related art.

Structures are written as SMILES.

`CN[C@H](C(=O)N[C@H](C(=O)N(C)[C@H](/C=C(\C)C(=O)O)C(C)C)C(C)(C)C)C(C)(C)c1cn(C)c2ccccc12` [hemiasterlin]: the anti-mitotic activity entry is “causes microtubule depolymerization and mitotic arrest in cells”.
As to `CN[C@H](C(=O)N[C@H](C(=O)N(C)[C@H](/C=C(\C)C(=O)O)C(C)C)C(C)(C)C)C(C)(C)c1ccccc1` [HT1-286], the anti-mitotic activity entry is listed as “potent anti-mitotic activity”.
